# Data published in ChEMBL document CHEMBL1201862, “PubChem BioAssay data set” (2004).
#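 How tested: cells in 96-well plates exposed to compound for 48 hours at five concentrations. GI50: concentration for 50% inhibition of growth.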 Calls of active or inactive are those of the source. No stated cut-off is given here; in the data, active = GI50 up to about 1.1 µM and inactive = higher.
# How the values were obtained:
# Experiment in all cases: NCI anticancer screen, dose series, 48 h
# 786-0 = tested on: 786-0
# A498 = tested on: A498
# A549 = tested on: A549
# ACHN = tested on: ACHN
# CAKI-1 = tested on: CAKI-1
# CCRF-CEM = tested on: CCRF-CEM
# COLO 205 = tested on: COLO 205
# DLD-1 = tested on: DLD-1
# DMS-273 = tested on: DMS-273
# EKVX = tested on: EKVX
# HCC 2998 = tested on: HCC 2998
# HCT-116 = tested on: HCT-116
# HCT-15 = tested on: HCT-15
# HL-60 = tested on: HL-60
# HOP-18 = tested on: HOP-18
# HOP-62 = tested on: HOP-62
# HOP-92 = tested on: HOP-92
# HT-29 = tested on: HT-29
# IGROV-1 = tested on: IGROV-1
# KM-20L2 = tested on: KM-20L2
# KM12 = tested on: KM12
# LOX IMVI = tested on: LOX IMVI
# LXFL 529 = tested on: LXFL 529
# M14 = tested on: M14
# M19-MEL = tested on: M19-MEL
# MOLT-4 = tested on: MOLT-4
# Malme-3M = tested on: Malme-3M
# NCI-H226 = tested on: NCI-H226
# NCI-H23 = tested on: NCI-H23
# NCI-H460 = tested on: NCI-H460
# NCI-H522 = tested on: NCI-H522
# OVCAR-3 = tested on: OVCAR-3
# OVCAR-4 = tested on: OVCAR-4
# OVCAR-5 = tested on: OVCAR-5
# OVCAR-8 = tested on: OVCAR-8
# RPMI-8226 = tested on: RPMI-8226
# RXF 393 = tested on: RXF 393
# RXF 631 = tested on: RXF 631
# SF-268 = tested on: SF-268
# SF-295 = tested on: SF-295
# SK-MEL-28 = tested on: SK-MEL-28
# SK-MEL-2 = tested on: SK-MEL-2
# SK-MEL-5 = tested on: SK-MEL-5
# SK-OV-3 = tested on: SK-OV-3
# SN12C = tested on: SN12C
# SNB-19 = tested on: SNB-19
# SNB-75 = tested on: SNB-75
# SNB-78 = tested on: SNB-78
# SR = tested on: SR
# SW-620 = tested on: SW-620
# TK-10 = tested on: TK-10
# U-251 = tested on: U-251
# UACC-257 = tested on: UACC-257
# UACC-62 = tested on: UACC-62
# UO-31 = tested on: UO-31
# DMS-114 = tested on: DMS-114
# K562 = tested on: K562
# SF-539 = tested on: SF-539
structure (smiles),measurement,setting,value
NC(CCc1nc(-c2ccc(Cl)cc2)cs1)C(=O)O (stereo not drawn),GI50,786-0,> 100 µM (inactive)
same,GI50,A498,> 100 µM (inactive)
same,GI50,A549,> 100 µM (inactive)
same,GI50,ACHN,> 100 µM (inactive)
same,GI50,CAKI-1,> 100 µM (inactive)
same,GI50,CCRF-CEM,> 100 µM (inactive)
same,GI50,COLO 205,> 100 µM (inactive)
same,GI50,DLD-1,> 100 µM (inactive)
same,GI50,DMS-273,> 100 µM (inactive)
same,GI50,EKVX,> 100 µM (inactive)
same,GI50,HCC 2998,> 100 µM (inactive)
same,GI50,HCT-116,> 100 µM (inactive)
same,GI50,HCT-15,74 µM
same,GI50,HL-60,> 100 µM (inactive)
same,GI50,HOP-18,> 100 µM (inactive)
same,GI50,HOP-62,> 100 µM (inactive)
same,GI50,HOP-92,> 73.5 µM (inactive)
same,GI50,HT-29,> 100 µM (inactive)
same,GI50,IGROV-1,> 100 µM (inactive)
same,GI50,KM-20L2,> 100 µM (inactive)
same,GI50,KM12,> 100 µM (inactive)
same,GI50,LOX IMVI,> 100 µM (inactive)
same,GI50,LXFL 529,> 100 µM (inactive)
same,GI50,M14,> 100 µM (inactive)
same,GI50,M19-MEL,> 100 µM (inactive)
same,GI50,MOLT-4,> 100 µM (inactive)
same,GI50,Malme-3M,> 100 µM (inactive)
same,GI50,NCI-H226,> 100 µM (inactive)
same,GI50,NCI-H23,> 100 µM (inactive)
same,GI50,NCI-H460,> 100 µM (inactive)
same,GI50,NCI-H522,> 100 µM (inactive)
same,GI50,OVCAR-3,> 100 µM (inactive)
same,GI50,OVCAR-4,> 100 µM (inactive)
same,GI50,OVCAR-5,> 100 µM (inactive)
same,GI50,OVCAR-8,> 100 µM (inactive)
same,GI50,RPMI-8226,> 100 µM (inactive)
same,GI50,RXF 393,> 100 µM (inactive)
same,GI50,RXF 631,> 100 µM (inactive)
same,GI50,SF-268,> 100 µM (inactive)
same,GI50,SF-295,> 100 µM (inactive)
same,GI50,SK-MEL-28,> 100 µM (inactive)
same,GI50,SK-MEL-2,> 100 µM (inactive)
same,GI50,SK-MEL-5,> 100 µM (inactive)
same,GI50,SK-OV-3,> 100 µM (inactive)
same,GI50,SN12C,> 100 µM (inactive)
same,GI50,SNB-19,> 100 µM (inactive)
same,GI50,SNB-75,> 100 µM (inactive)
same,GI50,SNB-78,> 100 µM (inactive)
same,GI50,SR,> 100 µM (inactive)
same,GI50,SW-620,> 100 µM (inactive)
same,GI50,TK-10,> 100 µM (inactive)
same,GI50,U-251,> 100 µM (inactive)
same,GI50,UACC-257,> 100 µM (inactive)
same,GI50,UACC-62,> 100 µM (inactive)
same,GI50,UO-31,> 100 µM (inactive)
NNC(=O)N/N=C1/C(=O)N(c2ccc(Cl)c(Cl)c2)C(=O)C(=O)C1c1nc2ccccc2o1 (stereo not drawn),GI50,786-0,> 100 µM (inactive)
same,GI50,A498,> 100 µM (inactive)
same,GI50,A549,> 100 µM (inactive)
same,GI50,ACHN,> 100 µM (inactive)
same,GI50,CAKI-1,> 100 µM (inactive)
same,GI50,CCRF-CEM,> 100 µM (inactive)
same,GI50,COLO 205,> 100 µM (inactive)
same,GI50,DLD-1,> 100 µM (inactive)
same,GI50,DMS-114,> 100 µM (inactive)
same,GI50,DMS-273,> 100 µM (inactive)
same,GI50,EKVX,45.3 µM (inactive)
same,GI50,HCC 2998,> 100 µM (inactive)
same,GI50,HCT-116,> 100 µM (inactive)
same,GI50,HCT-15,> 100 µM
same,GI50,HL-60,42.9 µM (inactive)
same,GI50,HOP-18,> 100 µM (inactive)
same,GI50,HOP-62,> 100 µM (inactive)
same,GI50,HOP-92,> 100 µM (inactive)
same,GI50,HT-29,> 100 µM (inactive)
same,GI50,IGROV-1,> 100 µM (inactive)
same,GI50,K562,> 100 µM (inactive)
same,GI50,KM-20L2,> 100 µM (inactive)
same,GI50,LOX IMVI,> 100 µM (inactive)
same,GI50,LXFL 529,> 100 µM (inactive)
same,GI50,M14,> 100 µM (inactive)
same,GI50,M19-MEL,> 100 µM (inactive)
same,GI50,MOLT-4,78.9 µM (inactive)
same,GI50,Malme-3M,> 100 µM (inactive)
same,GI50,NCI-H226,> 100 µM (inactive)
same,GI50,NCI-H23,> 100 µM (inactive)
same,GI50,NCI-H522,62.4 µM (inactive)
same,GI50,OVCAR-3,> 100 µM (inactive)
same,GI50,OVCAR-4,> 100 µM (inactive)
same,GI50,OVCAR-5,> 100 µM (inactive)
same,GI50,OVCAR-8,> 100 µM (inactive)
same,GI50,RXF 631,76.4 µM (inactive)
same,GI50,SF-268,> 100 µM (inactive)
same,GI50,SF-295,> 100 µM (inactive)
same,GI50,SF-539,> 100 µM (inactive)
same,GI50,SK-MEL-28,> 100 µM (inactive)
same,GI50,SK-MEL-2,> 100 µM (inactive)
same,GI50,SK-MEL-5,> 100 µM (inactive)
same,GI50,SK-OV-3,> 100 µM (inactive)
same,GI50,SN12C,> 100 µM (inactive)
same,GI50,SNB-19,29.5 µM (inactive)
same,GI50,SNB-75,> 100 µM (inactive)
same,GI50,SNB-78,> 100 µM (inactive)
same,GI50,SW-620,> 100 µM (inactive)
same,GI50,TK-10,> 100 µM (inactive)
same,GI50,U-251,> 100 µM (inactive)
same,GI50,UACC-257,> 100 µM (inactive)
same,GI50,UACC-62,67.1 µM (inactive)
same,GI50,UO-31,> 100 µM (inactive)
